Results on 8 compounds are retold here after US20080045560A1, “Pyrrolidine and related derivatives useful as PR modulators” (Wyeth, priority 2006, published 2008).

In general, inhibition refers to the drop in the measured response relative to a control, in per cent. Usually melting point stands for the temperature of the solid-liquid transition. For orientation: IC50 means the concentration that gives 50% inhibition.

Data set [1] has as its system progesterone receptor (alkaline phosphatase activity in T47D cells). The data set is described as follows: Effects of progestins and antiprogestins on alkaline phosphatase activity in T47D cells (antagonist mode). The note with it: Homo sapiens, in the presence of 1 nM progesterone, 24 h; for inhibition at 0.003 µM: at 3 nM. It counts as cell-based. Here is the method: (1) Effects of Progestins and Antiprogestins on Alkaline Phosphatase Activity in T47D Cells.
• PURPOSE: To identify progestins or antiprogestins by determining a compound's effect on alkaline phosphatase activity in T47D cells.
Culture medium: • DMEM:F12 (1:1) (GIBCO, BRL) supplemented with 5% (v/v) charcoal stripped fetal bovine serum (not heat-inactivated), 100 U/mL penicillin, 100 μg/mL streptomycin, and 2 mM the GlutaMax™ reagent (GIBCO, BRL).
Alkaline phosphatase assay buffer: • I. 0.1M Tris-HCl, pH 9.8, containing 0.2% the Triton® X-100 reagent • II. 0.1M Tris-HCl, pH 9.8, containing 4 mM p-nitrophenyl phosphate (Sigma).
Frozen T47D cells were thawed in a 37° C. water bath and diluted to 280,000 cells/mL in culture medium. To each well in a 96-well plate (Falcon, Becton Dickinson Labware), 180 μL of diluted cell suspension was added.
Twenty μL of reference or test compounds diluted in the culture medium was then added to each well. When testing for progestin antagonist activity, reference antiprogestins or test compounds were added in the presence of 1 nM progesterone. The cells were incubated at 37° C. in a 5% CO2/humidified atmosphere for 24 h. NOTE: For high throughput screening, one concentration of each compound was tested at 0.3 μg/mL. Based on an average molecular weight of 300 g/mol for the compounds in the library, the concentration was approximately 1 μM. Subsequently, active compounds were tested in dose response assays to determine EC50 and IC50.
At the end of treatment, the medium was removed from the plate. Fifty μL of assay buffer I was added to each well. The plates were shaken in a titer plate shaker for 15 min. Then 150 μL of assay buffer II was added to each well. Optical density measurements were taken at 5 min intervals for 30 min at a test wavelength of 405 nm.
For reference and test compounds, a dose response curve was generated for dose (X-axis) vs. the rate of enzyme reaction (slope) (Y-axis). Square root-transformed data was used for analysis of variance and nonlinear dose response curve fitting for both agonist and antagonist modes. Huber weighting was used to down-weight the effects of outliers. EC50 or IC50 values were calculated from the retransformed values. JMP software (SAS Institute, Inc.) was used for both one-way analysis of variance and non-linear dose response analysis in both single dose and dose response studies.
Progesterone and trimegestone were reference progestins and RU486 was the reference antiprogestin. All reference compounds were run in full dose response curves and the EC50 and IC50 values were calculated.

With `CC1(C)C=CC(=O)N1c1nc(-c2ccc(C#N)cc2)cs1` [Example 7, 4-[2-(2,2-Dimethyl-5-oxo-2,5-dihydro-1H-pyrrol-1-yl)-1,3-thiazol-4-yl]benzonitrile], the inhibition at 0.003 µM in data set [1] came out at 60%.

On to `CC1(C)CCC(=O)N1c1nc(-c2ccc(C#N)cc2)cs1` [Example 8, 4-[2-(2,2-Dimethyl-5-oxopyrrolidin-1-yl)-1,3-thiazol-4-yl]benzonitrile], for which the inhibition at 0.003 µM in data set [1] came to 50%.

Compound `CC1(C)COC(=O)N1c1nc(-c2cccc(C#N)c2)cs1` [Example 3, 3-[2-(4,4-dimethyl-2-oxo-1,3-oxazolidin-3-yl)-1,3-thiazol-4-yl]benzonitrile] registered a melting point of 181 to 183 °C.

The compound `CCC1(CC)COC(=O)N1c1nc(-c2ccc(C#N)cc2)cs1` [Example 2, 4-[2-(4,4-Diethyl-2-oxo-1,3-oxazolidin-3-yl)-1,3-thiazol-4-yl]benzonitrile] had a melting point of 145 to 147 °C.

On to `O=C1C2CCC(CC2)N1c1nc(-c2ccc(Br)cc2)cs1` [Example 10, 2-[4-(4-bromophenyl)-1,3-thiazol-2-yl]-2-azabicyclo[2.2.2]octan-3-one], for which the IC50 in data set [1] is 44.4 nM.

For `N#Cc1ccc(-c2csc(N3C(=O)C4CCC3CC4)n2)cc1` [Example 11, 4-[2-(3-oxo-2-azabicyclo[2.2.2]oct-2-yl)-1,3-thiazol-4-yl]benzonitrile], in data set [1], the IC50 was determined as 4.8 nM.

As to `C[C@@H]1COC(=O)N1c1nc(-c2ccc(Br)cc2)cs1` [Example 1, (4R)-3-[4-(4-Bromophenyl)-1,3-thiazol-2-yl]-4-methyl-1,3-oxazolidin-2-one], the melting point is 197 to 199 °C.

For the compound `CC1(C)CCC(=O)N1c1nc(-c2ccc(C#N)cc2)c(F)s1` [Example 9, 4-[2-(2,2-Dimethyl-5-oxopyrrolidin-1-yl)-5-fluoro-1,3-thiazol-4-yl]benzonitrile], the IC50 in data set [1] is 31.6 nM.
